Test results reported in patent publication US9155790B2, “Methods and compositions for modulating ocular damage” (University of Lousiville Research Foundation, Inc., priority 2010, dated 2015).
“Also recorded” adds a separate entry of the source.

What was measured:
Brown Norway rats = assay: PVR / retinal detachment model in Brown Norway rats; type: in vivo
Description: Briefly, retinal detachment was created in three C57BL6 mice. Animals underwent a lensectomy/vitrectomy procedure under ketamine/xylazine anesthesia. These procedures were done through a central slit corneal incision. After the completion of the procedure, a tear was created in the peripheral retina under the microscope and the sensory retina was detached. Next, the cornea was closed with a 10-0 nylon suture and each animal was returned to its cage. The experimental group received 500 μg/in 5 μl of the MIF inhibitor 4-(2-fluorophenyl)-6-iodopyrimidine (Compound 1) in the posterior subtenon space on days 0 and 5, whereas control animals received the solvent (i.e., a 1:1 mixture of DMSO and corn oil). Animals were sacrificed on day 10 and light microscopy was used to assess the presence and extent of PVR. MIF^−/− knockout animals (n=3) were also used as a control.
Similar experiments were also repeated using Brown Norway rats. […] However, in control animals (FIG. 5 I) numerous RPE cells became migratory in the vitreous and started to form epiretinal membranes

C57BL/6 mice [1] = assay: Proliferative vitreoretinopathy (PVR) model, surgically induced retinal detachment in mice; type: in vivo; settings: 500 μg in 5 μl subtenon on days 0 and 5; light microscopy day 10
Description: The effect of MIF inhibition on EMT was further tested in vivo using an animal model of PVR. Six (6) adult C57BL/6 mice were anesthetized with pentobarbital sodium (70 mg/kg i.p.) and a linear incision was made in the cornea. The lens was removed and a tear was created in the peripheral retina using a 32G needle. The corneal incision was then sutured with 10-0 nylon.
The experimental group received 500 μg/in 5 μl of a MIF inhibitor (4-iodo-6-(2-fluorophenyl)pyrimidine; Compound 1) in the posterior subtenon space on Days 0 and 5, whereas control animals received the solvent. Animals were sacrificed on Day 10 and light microscopy was used to assess the presence and extent of PVR. MIF^−/− animals (n=3) were also used as control.
In order to test the safety and efficacy of MIF neutralization in vivo, the model disclosed in Saika et al., 2004 was employed.
Briefly, retinal detachment was created in three C57BL6 mice. Animals underwent a lensectomy/vitrectomy procedure under ketamine/xylazine anesthesia. These procedures were done through a central slit corneal incision. After the completion of the procedure, a tear was created in the peripheral retina under the microscope and the sensory retina was detached. Next, the cornea was closed with a 10-0 nylon suture and each animal was returned to its cage. […]

C57BL/6 mice [2] = assay: Laser-induced subretinal choroidal neovascularization (CNV) in mice; type: in vivo; settings: for CNV yield (percent of the spots with CNV): read 10 days after laser
Excerpt: In order to test the efficacy of MIF inhibitors to prevent subretinal or intraretinal neovascularization, subretinal choroidal neovascularization (CNV) was induced in C57BL/6 mice (n=3; 6 eyes/per experimental group) using a double-frequency YAG laser (532 nm). Laser parameters were 600 mW of power, 0.1 sec duration, and a spot size of 50 micrometers. Approximately 8-12 spots per eye were placed. One group of animals received 500 micrograms of 4-(2-fluorophenyl)-6-iodopyrimidine (Compound 1) into the posterior subtenon space through a 32-G needle 24 hours before laser application. Compound 1 was dissolved in 1:1 mixture of DMSO and corn oil solvent. The injection volume was 5 microliters.
Another group of animals received the drug six days after the laser photocoagulation when subretinal neovascularization is at its maximum growth. This scenario exemplified the use of MIF inhibitors (including, but not limited to Compound 1) in the treatment of active wet age-related macular degeneration (AMD). The two […] controls received either PBS or DMSO:corn oil mixture into the subTenon space. MIF^−/− animals (i.e., mice with a homozygous knock out of the MIF gene) were also taken as the negative control.
Ten days after the laser photocoagulation animals were perfused with high molecular weight dextran (2 megadalton)-conjugated fluorescein under deep anesthesia and then sacrificed. Choroidal neovascularization (CNV) yield (=percent of the spots with CNV) was determined under a fluorescent microscope.
The effect of MIF neutralization on retinal pigment epithelial (RPE) differentiation and wound healing properties in animal models of chemical RPE debridement and laser-induced choroidal neovascularization (CNV) was tested. CNV was induced in C57BL/6 mice (n=18) using a double-frequency YAG laser (532 nm; 600 mW; 0.1 sec; 50 μm; 8-12 spots/eye). The experimental group (n=6) received 500 μg/in 5 μl of a MIF inhibitor (4-iodo-6-(2-fluorophenyl)pyrimidine; Compound 1) in the posterior subtenon space 24 hours before laser application. Ten (10) days later, animals were sacrificed and induced CNV (i.e., yield) was determined.
(§1) Another group of animals received MIF-inhibitor 6 days after laser treatment to determine the effect of MIF-neutralization on established CNV. RPE loss was also mimicked in twelve C57BL/6 mice by patchy debridement of RPE using intraperitoneal sodium iodate injection (25 mg/kg). Seven days later, animals received the subtenon MIF inhibitor and RPE resurfacing was determined on day 21 by morphometric image analysis. In all experiments, MIF^−/− animals and wild type animals that received the solvent (DMSO/Corn oil) and/or PBS were used as controls.

C57BL/6 mice [3] = assay: Sodium iodate chemical RPE debridement model of geographic atrophy; type: in vivo
Description: as §1
Immunostaining for RPE65, vimentin, E-cadherin, and N-cadherin was used to identify and characterize RPE differentiation.
Sodium iodate was employed for chemical debridement of RPE to mimic geographic atrophy. Mice received NalO3 (25 mg/kg) intraperitoneally followed by subtenon injection of Compound 1 (500 μg in 5 μL) on day 7. Mice were sacrificed on Day 21 and the surface coverage by RPE cells was determined.

primary human RPE cells = assay: EMT of cultured primary human RPE cells (morphology and qPCR); type: cell-based
Description: To determine whether MIF inhibition can prevent the formation proliferative vitreoretinopathy (PVR) by inhibiting epithelio-mesenchymal transformation (EMT) of RPE, primary human RPE cells from two young donors were plated on tissue-culture plastic and maintained in DMEM H16 supplemented with 10% FBS and a MIF inhibitor (4-IPP; 25-50 μM) for 3 weeks. Control cells were exposed only to the solvent (DMSO/Corn oil).
Morphology and qPCR for microphthalmia transcription factor (MITF), plasminogen activator inhibitor type-1 (PAI-1), vimentin, and N-cadherin were used to assay for the presence of EMT.
Human RPE cells were isolated freshly (<24 hours) from human donor eyes. Harvested RPE cells were cultured on tissue-culture plates. 25 μM of 4-IPP, a small molecule antagonist of MIF, was added to the culture medium every other day. Untreated wells were taken as control. 21 days later, cells were photographed and RNA was isolated for qPCR analyses.

[4] = 25 μM every other day, 21 days, qPCR
[5] = 25-50 μM for 3 weeks, qPCR vs control

With `Fc1ccccc1-c1cc(I)ncn1` [Compound 1, 4-(2-fluorophenyl)-6-iodopyrimidine] the “RPE morphology and invasion of subretinal / intravitreal space” value (Brown Norway rats; Brown Norway rats, FIG. 5H, vs control) was “maintained their epitheloid morphology and did not invade the subretinal and/or intravitreal space”, the “preservation of photoreceptor cells in the detached retina” value (Brown Norway rats; FIG. 6A vs vehicle control FIG. 6B) was “better preservation of the photoreceptor cells in the detached retina; also recorded: better preserved” and the “outer nuclear layer thickness” value (Brown Norway rats; detached retina, FIG. 6A vs controls) was “thicker outer nuclear layer”. The “RPE cell layering / morphology in the subretinal space” value (C57BL/6 mice [1]) was “remained as a monolayer; also recorded: maintained an epitheloid monolayer in the subretinal space”, the “formation / contraction of peri-retinal membranes (PVR)” value (C57BL/6 mice [1]) was “significantly inhibited the formation of peri-retinal membranes; also recorded: No physical distortion related with the contraction of periretinal membranes was noted” and the “CNV yield (percent of the spots with CNV)” value (C57BL/6 mice [2]; 500 μg in 5 μl posterior subtenon, 24 hours before laser (pre-laser)) was 10.7%. For the same compound, the “CNV yield (percent of the spots with CNV)” value (C57BL/6 mice [2]; 500 μg subtenon 6 days after laser (post-laser, established CNV)) was 12.9%, the “RPE growth over the laser spot” value (C57BL/6 mice [2]; histology / fluorescence microscopy of laser spots) was “RPE cells proliferated to cover the spot; also recorded: RPE proliferated over the laser spot and sealed it off from neovascularization; also recorded: proliferate over the laser spot and seal it off from neovascularization” and the “occurrence of CNV (FIG. 1)” value (C57BL/6 mice [2]; post-laser application (5th bar)) was “significantly suppressed the occurrence of CNV”. The “occurrence of CNV (FIG. 1)” value (C57BL/6 mice [2]; pre-laser application (4th bar)) was “significantly suppressed the occurrence of CNV”, the “differentiation of proliferating RPE cells (immunostaining)” value (C57BL/6 mice [3]; MIF-neutralized animals, RPE65, vimentin, E-cadherin, N-cadherin staining) was “maintained differentiated cuboidal morphology and expressed E-cadherin and RPE-65” and the “surface coverage by RPE cells vs vehicle (FIG. 7)” value (C57BL/6 mice [3]; NaIO3 25 mg/kg i.p., 500 μg in 5 μL subtenon on day 7, day 21) was “statistically significant greater surface coverage”. For the same compound, the “surface coverage by RPE cells” value (C57BL/6 mice [3]; sodium iodate 25 mg/kg i.p., subtenon MIF inhibitor on day 7, morphometric image analysis on day 21) was 93.8±6.3%, the “RPE resurfacing of the denuded Bruch's membrane (FIGS. 8, 9)” value (C57BL/6 mice [3]; three weeks after partial destruction of RPE cells, vs vehicle) was “proliferated at a higher rate, resurfaced the Bruch's membrane, and formed an epithelial monolayer; also recorded: better resurfacing of the denuded Bruch's membrane with RPE cells; also recorded: RPE cells established a monolayer in many places; also recorded: proliferated at a higher rate; resurfaced the Bruch's membrane and formed an epithelial monolayer” and the “RPE cell proliferation (PCNA staining)” value (C57BL/6 mice [3]; vs vehicle control mice, FIG. 10A) was “increased cell proliferation; also recorded: higher proliferation of the RPE cells”. For the same compound, the “apoptotic cell death (TUNEL staining)” value (C57BL/6 mice [3]; vs vehicle control mice, FIG. 10B) was “decreased apoptotic cell death”.

For `Ic1cc(-c2ccccc2)ncn1` [Compound 4-IPP, 4-iodo-6-phenylpyrimidine], the “MITF mRNA level, control lower than inhibitor-treated cells” value (primary human RPE cells; [4]) was 1.6 fold, the “N-cadherin mRNA level, control higher than inhibitor-treated cells” value (primary human RPE cells; [4]) was 43.2 fold and the “PAI-1 mRNA level, control higher than inhibitor-treated cells” value (primary human RPE cells; [4]) was 19.7 fold. For the same compound, the “vimentin mRNA level, control higher than inhibitor-treated cells” value (primary human RPE cells; [4]) was 8.5 fold, the “cell number and morphology of cultured human RPE cells (FIG. 4A)” value (primary human RPE cells; 25 μM every other day, 21 days, vs control wells) was “significantly fewer in number, were uniformly pigmented, retained a classical cuboidal epithelial morphology” and the “increase in MITF mRNA level” value (primary human RPE cells; [5]) was 1.6 ×. The “reduction of N-cadherin mRNA level” value (primary human RPE cells; [5]) was 43.2 ×, the “reduction of PAI-1 mRNA level” value (primary human RPE cells; [5]) was 19.7 × and the “reduction of vimentin mRNA level” value (primary human RPE cells; [5]) was 8.5 ×. The “cell number and morphology of cultured human RPE cells” value (primary human RPE cells; 25-50 μM for 3 weeks, vs solvent control) was “significantly fewer in number but maintained their typical cuboidal epithelial morphology”.
